ChEMBL document CHEMBL3997763 (Medchemcomm, 2016)
Active and inactive are the calls of the source. The rule behind the calls is not given here.

Tests used:
[1] = target: T1, 3-hydroxy-3-methylglutaryl-coenzyme A reductase (Homo sapiens) (UniProt P04035); test: Inhibition of human HMG-CoA reductase catalytic domain at 10 uM using HMG-CoA as substrate in presence of NADPH by colorimetric method relative to control
T1 sequence (whole entry): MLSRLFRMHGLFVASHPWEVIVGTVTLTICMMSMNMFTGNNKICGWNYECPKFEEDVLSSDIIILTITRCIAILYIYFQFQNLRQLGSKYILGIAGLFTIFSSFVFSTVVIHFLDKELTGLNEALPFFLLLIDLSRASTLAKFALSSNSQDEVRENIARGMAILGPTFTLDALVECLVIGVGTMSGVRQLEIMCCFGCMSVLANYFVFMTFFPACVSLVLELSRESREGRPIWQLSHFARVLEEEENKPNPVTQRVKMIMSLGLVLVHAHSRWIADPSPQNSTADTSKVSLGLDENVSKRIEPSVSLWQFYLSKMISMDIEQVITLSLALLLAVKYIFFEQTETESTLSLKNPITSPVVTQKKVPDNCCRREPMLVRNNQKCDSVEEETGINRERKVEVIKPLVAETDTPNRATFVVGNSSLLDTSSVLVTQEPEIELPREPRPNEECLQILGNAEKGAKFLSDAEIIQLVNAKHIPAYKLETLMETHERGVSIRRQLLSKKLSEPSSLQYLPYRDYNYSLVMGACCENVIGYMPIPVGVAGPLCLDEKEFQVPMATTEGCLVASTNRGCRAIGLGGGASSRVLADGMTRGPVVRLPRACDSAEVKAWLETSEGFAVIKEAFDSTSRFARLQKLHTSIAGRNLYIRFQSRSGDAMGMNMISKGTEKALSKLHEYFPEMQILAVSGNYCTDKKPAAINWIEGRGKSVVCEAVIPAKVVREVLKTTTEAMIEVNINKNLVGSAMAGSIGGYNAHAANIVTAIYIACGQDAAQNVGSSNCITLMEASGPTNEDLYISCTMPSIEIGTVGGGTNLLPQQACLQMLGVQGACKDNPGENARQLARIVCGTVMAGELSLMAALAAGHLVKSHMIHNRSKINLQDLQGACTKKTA

[2] = target: T1, 3-hydroxy-3-methylglutaryl-coenzyme A reductase (Homo sapiens); test: Inhibition of human HMG-CoA reductase catalytic domain at 1 uM using HMG-CoA as substrate in presence of NADPH by colorimetric method relative to control
[3] = target: T1, 3-hydroxy-3-methylglutaryl-coenzyme A reductase (Homo sapiens); test: Inhibition of human HMG-CoA reductase catalytic domain at 5 uM using HMG-CoA as substrate in presence of NADPH by colorimetric method relative to control
[4] = target: T1, 3-hydroxy-3-methylglutaryl-coenzyme A reductase (Homo sapiens); test: Inhibition of human HMG-CoA reductase catalytic domain at 20 uM using HMG-CoA as substrate in presence of NADPH by colorimetric method relative to control
[5] = target: T1, 3-hydroxy-3-methylglutaryl-coenzyme A reductase (Homo sapiens); test: Inhibition of human HMG-CoA reductase catalytic domain at 50 uM using HMG-CoA as substrate in presence of NADPH by colorimetric method relative to control
[6] = target: T1, 3-hydroxy-3-methylglutaryl-coenzyme A reductase (Homo sapiens); test: Inhibition of human HMG-CoA reductase catalytic domain at 100 uM using HMG-CoA as substrate in presence of NADPH by colorimetric method relative to control
[7] = tested on: Rattus norvegicus; test: Antihyperlipidemic activity in triton WR-1339 induced Charles Foster rat hyperlipidemia model assessed as inhibition of total cholesterol level in serum at 10 mg/kg, po administered simultaneously with triton WR-1339 after 18 hrs by enzymatic method relative to control; assay type: functional
[8] = tested on: Rattus norvegicus; test: Antihyperlipidemic activity in triton WR-1339 induced Charles Foster rat hyperlipidemia model assessed as inhibition of phospholipid level in serum at 10 mg/kg, po administered simultaneously with triton WR-1339 after 18 hrs by enzymatic method relative to control; assay type: functional
[9] = tested on: Rattus norvegicus; test: Antihyperlipidemic activity in triton WR-1339 induced Charles Foster rat hyperlipidemia model assessed as inhibition of triglyceride level in serum at 10 mg/kg, po administered simultaneously with triton WR-1339 after 18 hrs by enzymatic method relative to control; assay type: functional
[10] = tested on: Rattus norvegicus; test: Hypolipidemic activity in HFD-induced Charles Foster rat chronic hyperlipidemia model assessed as reduction in serum total cholesterol level at 10 mg/kg administered via oral gavage for 30 days simultaneously with high fat diet by enzymatic method relative to HFD treated vehicle; assay type: functional; conditions: 720 h
[11] = tested on: Rattus norvegicus; test: Hypolipidemic activity in HFD-induced Charles Foster rat chronic hyperlipidemia model assessed as reduction in serum triglyceride level at 10 mg/kg administered via oral gavage for 30 days simultaneously with high fat diet by enzymatic method relative to HFD treated vehicle; assay type: functional; conditions: 720 h
[12] = tested on: Rattus norvegicus; test: Hypolipidemic activity in HFD-induced Charles Foster rat chronic hyperlipidemia model assessed as reduction in serum AST level at 10 mg/kg administered via oral gavage for 30 days simultaneously with high fat diet by colorimetric method relative to HFD treated vehicle; assay type: functional; conditions: 720 h
[13] = tested on: Rattus norvegicus; test: Hypolipidemic activity in HFD-induced Charles Foster rat chronic hyperlipidemia model assessed as reduction in serum ALT level at 10 mg/kg administered via oral gavage for 30 days simultaneously with high fat diet by colorimetric method relative to HFD treated vehicle; assay type: functional; conditions: 720 h
[14] = tested on: Rattus norvegicus; test: Hypolipidemic activity in HFD-induced Charles Foster rat chronic hyperlipidemia model assessed as reduction in liver total cholesterol level at 10 mg/kg administered via oral gavage for 30 days simultaneously with high fat diet by enzymatic method relative to HFD treated vehicle; assay type: functional; conditions: 720 h
[15] = tested on: Rattus norvegicus; test: Hypolipidemic activity in HFD-induced Charles Foster rat chronic hyperlipidemia model assessed as reduction in liver triglyceride level at 10 mg/kg administered via oral gavage for 30 days simultaneously with high fat diet by enzymatic method relative to HFD treated vehicle; assay type: functional; conditions: 720 h
[16] = tested on: Rattus norvegicus; test: Hypolipidemic activity in HFD-induced Charles Foster rat assessed as reduction in serum VLDL-TC at 10 mg/kg administered as single dose via oral gavage for 30 days simultaneously with high fat diet; assay type: functional, organism-based
[17] = tested on: Rattus norvegicus; test: Hypolipidemic activity in HFD-induced Charles Foster rat assessed as reduction in serum VLDL-TG at 10 mg/kg administered as single dose via oral gavage for 30 days simultaneously with high fat diet; assay type: functional, organism-based
[18] = tested on: Rattus norvegicus; test: Hypolipidemic activity in HFD-induced Charles Foster rat assessed as reduction in serum LDL-TC at 10 mg/kg administered as single dose via oral gavage for 30 days simultaneously with high fat diet; assay type: functional, organism-based
[19] = tested on: Rattus norvegicus; test: Hypolipidemic activity in HFD-induced Charles Foster rat assessed as reduction in serum LDL-TG at 10 mg/kg administered as single dose via oral gavage for 30 days simultaneously with high fat diet; assay type: functional, organism-based
[20] = tested on: Rattus norvegicus; test: Hypolipidemic activity in HFD-induced Charles Foster rat assessed as increase in serum HDL-TC at 10 mg/kg administered as single dose via oral gavage for 30 days simultaneously with high fat diet; assay type: functional, organism-based
[21] = tested on: Rattus norvegicus; test: Hypolipidemic activity in HFD-induced Charles Foster rat assessed as increase in serum HDL-TG at 10 mg/kg administered as single dose via oral gavage for 30 days simultaneously with high fat diet; assay type: functional, organism-based
[22] = tested on: Rattus norvegicus; test: Hypolipidemic activity in HFD-induced Charles Foster rat assessed as increase in serum LCAT activity at 10 mg/kg administered as single dose via oral gavage for 30 days simultaneously with high fat diet by photometric method; assay type: functional, organism-based
[23] = tested on: Rattus norvegicus; test: Hypolipidemic activity in HFD-induced Charles Foster rat assessed as increase in human I125-LDL binding to rat liver plasma membrane at 10 mg/kg administered as single dose via oral gavage for 30 days simultaneously with high fat diet by minigamma counting; assay type: functional, organism-based
[24] = tested on: Rattus norvegicus; test: Hypolipidemic activity in HFD-induced Charles Foster rat assessed as inhibition of hepatic HMG-CoA reductase activity by measuring […] at 10 mg/kg administered as single dose via oral gavage for 30 days simultaneously with high fat diet by colorimetric method; assay type: functional, organism-based
[25] = tested on: Rattus norvegicus; test: Hypolipidemic activity in HFD-induced Charles Foster rat assessed as increase in lipolytic activity of LPL in liver at 10 mg/kg administered as single dose via oral gavage for 30 days simultaneously with high fat diet; assay type: functional, organism-based

In the case of `CC(C)c1c(C(=O)Nc2ccccc2)c(-c2ccccc2)c(-c2ccc(F)cc2)n1CC[C@@H](O)C[C@@H](O)CC(=O)O` [ATORVASTATIN], the inhibition [1] is reported as 60 to 63%, the inhibition [2] is reported as 20% and the inhibition [3] is reported as 35%. The inhibition [4] was 69%, the inhibition [5] was 76% and the inhibition [6] was 83%. It also gave an inhibition in vivo at 10 mg/kg [7] of 36%, an inhibition in vivo at 10 mg/kg [8] of 35% and an inhibition in vivo at 10 mg/kg [9] of 35%. For the same molecule, the inhibition in vivo at 10 mg/kg [10] was 25%, the inhibition in vivo at 10 mg/kg [11] was 26% and the inhibition in vivo at 10 mg/kg [12] was 29%. For the same molecule, the inhibition in vivo at 10 mg/kg [13] was 25%, the inhibition in vivo at 10 mg/kg [14] was 28% and the inhibition in vivo at 10 mg/kg [15] was 30%. For the same molecule, the Activity [16] was “Active”, the Activity [17] was “Active” and the Activity [18] was “Active”. The Activity [19] was “Active”, the Activity [20] was “Active” and the Activity [21] was “Active”. The Activity [22] was “Active”, the Activity [23] was “Active” and the inhibition [24] was “Active”. For the same molecule, the Activity [25] was “Active”.
